In one series the test system is SARS-CoV-2 (WA1). Kind of series: Virus yield reduction assay, SARS-CoV-2 in dNHBE / HAE cells. The class given is cell-based. As for the experimental part:
The antiviral activity of Compound 1A was next evaluated against SARS-CoV-2 (WA1) using differentiated normal human bronchial epithelial (dNHBE; HAE (human airway epithelial) cells made to order by MatTek Corporation (Ashland, MA).
Cell Culture: dNHBE cells were grown on 6 mm mesh disks and arrived in kits with either 12- or 24-well transwell inserts. During transportation the tissues were stabilized on a sheet of agarose, which was removed upon receipt. One insert was estimated to consist of approximately 1.2×10^6 cells. Kits of cell inserts (EpiAirway™ AIR-100, AIR-112) originated from a single donor, #9831, a healthy, non-smoking person. The cells have unique properties in forming layers, the apical side of which is exposed only to air and that creates a mucin layer. Upon arrival, the cell transwell inserts were immediately transferred to individual wells of a 6-well plate according to manufacturer's instructions, and 1 mL of MatTek's proprietary culture medium (AIR-100-MM) was added to the basolateral side, whereas the apical side was exposed to a humidified 5% CO2 environment. Cells were cultured at 37° C. for one day before the start of the experiment. After the 24 hour equilibration period, the mucin layer, secreted from the apical side of the cells, was removed by washing with 400 μL pre-warmed 30 mM HEPES buffered saline solution 3×. Culture medium was replenished following the wash steps.
Viruses: Virus was diluted in AIR-100-MM medium before infection, yielding a multiplicity of infection (MOI) of approximately 0.0015 CCID50 per cell.
The cells were maintained at the air-liquid interface.
Determination of virus titers from each treated cell culture: Vero 76 cells were seeded in 96-well plates and grown overnight (37° C.) to confluence. Samples containing virus were diluted in 10-fold increments in infection medium and 200 μL of each dilution transferred into respective wells of a 96-well microtiter plate. Four microwells were used for each dilution to determine 50% viral endpoints. After 5 days of incubation, each well was scored positive for virus if any cytopathic effect (CPE) was observed as compared with the uninfected control and counts were confirmed for endpoint on days 6 and 7. […] The day 5 values were reported. Untreated, uninfected cells were used as the cell controls.
The antiviral activities of test compounds were evaluated against SARS-CoV-2 (USA-WA1/2020) using made to order human airway epithelial (HAE) cells.
Cell Culture: HAE cells were grown on 6 mm mesh disks and arrived in kits with either 12- or 24-well transwell inserts. During transportation the tissues were stabilized on a sheet of agarose, which was removed upon receipt. One insert was estimated to consist of approximately 1.2×10^6 cells. Kits of cell inserts (EpiAirway™ AIR-100 or AIR-112) originated from a single donor, #9831, a healthy, non-smoking person. The cells form polarized monolayers, the apical side of which is exposed to air and creates a mucin layer. Upon arrival, the cell transwell inserts were immediately transferred to individual wells of a 6-well plate according to the manufacturer's instructions, and 1 mL of MatTek's proprietary culture medium (AIR-100-MM) was added to the basolateral side, whereas the apical side was exposed to a humidified 5% CO2 environment. Cells were cultured at 37° C. in a humidified atmosphere containing 5% CO2 for one day before the start of the experiment. After the 24-h equilibration period, the mucin layer, secreted from the apical side of the cells, was removed by washing with 400 μL pre-warmed 30 mM HEPES buffered saline solution 3×. Culture medium was replenished following the wash steps.
Viruses: Virus was diluted in AIR-100-MM medium before infection to yield a MOI when added to cultures of approximately 0.0015 CCID50 per cell.
Select compounds of the present invention were tested in a SARS-CoV-2 assay. […]

Series [1] relates to human airway epithelial (HAE) cells.
The subject of series [2] is human bronchial epithelial cells. Particulars: 10 μM.
Series [3] deals with human nasal epithelial cells. Particulars: 10 μM.
The subject of a further series is RSV. To be noted: RSV-infected HAE cells; read-out: in vitro EC90; cited from earlier work.
Series [4] in a line: Plasma PK in non-human primates after oral Compound 2A. To be noted: monkey plasma, oral Compound 2A 60 mg/kg then 30 mg/kg every 12 h, steady state.
A short description of the next series: in vitro. Particulars: human.
The test system of another series is HCV. Particulars: HCV-infected subjects, up to 12 weeks; cited from earlier work.
[5] abbreviates: Severe acute respiratory syndrome coronavirus 2, HAE, SARS-CoV-2 in HAE (dNHBE) cells, Table 11, read-out: VYR Assay EC90.
[6] abbreviates: Severe acute respiratory syndrome coronavirus 2, HAE, SARS-CoV-2, Table 11B, read-out: VYR Assay EC90.

Read-outs that look alike come from different tables or passages of the source.

A word on the EC90: it is the concentration needed for an effect of 90%. As for `C=C[C@@]1(F)[C@H](O)[C@@H](CO[P@@](=O)(N[C@@H](C)C(=O)OC(C)C)Oc2ccccc2)O[C@H]1n1cnc2c(NC)nc(N)nc21` [Compound 8, Isopropyl ((S)-(((2R,3R,4R,5R)-5-(2-amino-6-(methylamino)-9H-purin-9-yl)-4-fluoro-3-hydroxy-4-vinyltetrahydrofuran-2-yl)methoxy)(phenoxy)phosphoryl)-L-alaninate], in the series on SARS-CoV-2 (WA1) (setting [5]), the EC90 turned out to be 6.4 µM. Further, the “VYR Assay CC50” value in series [1] is reported as “no visual tox”.

Consider `CC(C)OC(=O)[C@H](C)NP(=O)(OC[C@H]1O[C@@H](Oc2ncc(Br)nc2C(N)=O)[C@@](F)(C(F)(F)F)[C@@H]1O)Oc1ccccc1` (stereo partly drawn) [Compound 14], for which the EC90 with SARS-CoV-2 (WA1) (setting [6]) worked out at 0.57 µM.

Consider `CC(C)OC(=O)[C@H](C)N[P@](=O)(OC[C@H]1O[C@@H](n2ccc(=O)[nH]c2=O)[C@](C)(F)[C@@H]1O)Oc1ccccc1` [Sofosbuvir, reference compound], for which, in the series with SARS-CoV-2 (WA1) (setting [5]), the EC90 is > 19 µM. Moreover, in series [1], the “VYR Assay CC50” value is “no visual tox”.

Regarding `CC(C)OC(=O)[C@H](C)NP(=O)(OC[C@H]1O[C@@H](n2cnc3c(NC4CC4)nc(N)nc32)[C@@](F)(CO)[C@@H]1O)Oc1ccccc1` (stereo partly drawn) [Compound 10, Isopropyl ((((2R,3R,4R,5R)-5-(2-amino-6-(cyclopropylamino)-9H-purin-9-yl)-4-fluoro-3-hydroxy-4-(hydroxymethyl)tetrahydrofuran-2-yl)methoxy)(phenoxy)phosphoryl)-L-alaninate], the EC90 in the series on SARS-CoV-2 (WA1) (setting [5]) was determined as 5.3 µM. Besides, in series [1], the “VYR Assay CC50” value is recorded as “no visual tox”.

In the case of `CNc1nc(N)nc2c1ncn2[C@@H]1O[C@H](CO[P@@](=O)(N[C@@H](C)C(=O)OC(C)C)Oc2ccccc2)[C@@H](O)[C@]1(F)CF` [Compound 6, Isopropyl ((S)-(((2R,3R,4R,5R)-5-(2-amino-6-(methylamino)-9H-purin-9-yl)-4-fluoro-4-(fluoromethyl)-3-hydroxytetrahydrofuran-2-yl)methoxy)(phenoxy)phosphoryl)-L-alaninate], the EC90 in the series on SARS-CoV-2 (WA1) (setting [5]) turned out to be 1.8 µM. In addition, the “VYR Assay CC50” value in series [1] was “no visual tox”.

On to `Nc1ccn([C@@H]2O[C@@](CO)(CCl)[C@@H](O)[C@H]2F)c(=O)n1` [ALS-8112, reference compound], for which the “ratio of triphosphate from Compound 1A vs. comparator” value in series [2] (8 h) is 2; in series [2] (15 h) it was 5; in series [3] (8 h), 1; in series [3] (15 h), 3. Further, the EC90 in the series with RSV is 1.3 to 2.7 µM.

In general, Cmax refers to the highest concentration seen after dosing. Usually Tmax stands for the time at which the peak concentration occurs. In the case of `C[C@@]1(F)[C@H](O)[C@@H](CO)O[C@H]1n1cnc2c(=O)[nH]c(N)nc21` [Compound 1-7, 2-amino-9-((2R,3R,4R,5R)-3-fluoro-4-hydroxy-5-(hydroxymethyl)-3-methyltetrahydrofuran-2-yl)-1,9-dihydro-6H-purin-6-one], in series [4], the Cmax worked out at 160 nM and the time to peak (Tmax) was 2 h.

`[2H]C([2H])([2H])[C@@]1(F)[C@H](O)[C@@H](CO[P@@](=O)(N[C@@H](C)C(=O)OC(C)C)Oc2ccccc2)O[C@H]1n1cnc2c(NC)nc(N)nc21` [Compound 5, Isopropyl ((S)-(((2R,3R,4R,5R)-5-(2-amino-6-(methylamino)-9H-purin-9-yl)-4-fluoro-3-hydroxy-4-methyltetrahydrofuran-2-yl)methoxy)(phenoxy)phosphoryl)-L-alaninate]: in the series with SARS-CoV-2 (WA1) (setting [5]), the EC90 came to 0.31 µM. Besides, the “VYR Assay CC50” value in series [1] is listed as “no visual tox”.

Take `CCN(CC)CCCC(C)Nc1ccnc2cc(Cl)ccc12` (stereo not drawn) [chloroquine]: the CC50 in the series “in vitro” was determined as 21 µM.

Regarding `Cc1ncc2ncn([C@@H]3O[C@H](COP(=O)(N[C@@H](C)C(=O)OC(C)C)Oc4ccccc4)[C@@H](O)[C@]3(F)C(F)(F)F)c2n1` (stereo partly drawn) [Compound 13], in the series on SARS-CoV-2 (WA1) (setting [6]), the EC90 came to 3.2 µM.

Consider `CNc1nc(N)nc2c1ncn2[C@@H]1O[C@H](CO[P@@](=O)(N[C@@H](C)C(=O)OC(C)C)Oc2ccccc2)[C@@H](O)[C@]1(F)C(F)(F)F` [Compound 11A], for which the EC90 with SARS-CoV-2 (WA1) (Severe acute respiratory syndrome coronavirus 2, HAE, read-out: VYR Assay EC90, SARS-CoV-2 in HAE (dNHBE) cells, Table 11) came out at 3.7 µM. Also, the “VYR Assay CC50” value in series [1] is on record as “no visual tox”.

For `C#C[C@@]1(F)[C@H](O)[C@@H](CO[P@@](=O)(N[C@@H](C)C(=O)OC(C)C)Oc2ccccc2)O[C@H]1n1cnc2c(NC)nc(N)nc21` [Compound 7, Isopropyl ((S)-(((2R,3R,4R,5R)-5-(2-amino-6-(methylamino)-9H-purin-9-yl)-4-ethynyl-4-fluoro-3-hydroxytetrahydrofuran-2-yl)methoxy)(phenoxy)phosphoryl)-L-alaninate], in the series on SARS-CoV-2 (WA1) (setting [5]), the concentration for an effect of 90% (EC90) is 3.2 µM. Moreover, in series [1], the “VYR Assay CC50” value is reported as “no visual tox”.

Take `CCN(CCO)CCCC(C)Nc1ccnc2cc(Cl)ccc12` (stereo not drawn) [hydroxychloroquine]: the CC50 in the series “in vitro” turned out to be 26 µM.

For the molecule `Cc1nc2nccnc2n1[C@@H]1O[C@H](COP(=O)(N[C@@H](C)C(=O)OC(C)C)Oc2ccccc2)[C@@H](O)[C@]1(F)C(F)(F)F` (stereo partly drawn) [Compound 12], the EC90 in the series with SARS-CoV-2 (WA1) (setting [6]) was 1.5 µM.

For `CNc1nc(N)nc2c1ncn2[C@@H]1O[C@H](CO[P@@](=O)(N[C@@H](C)C(=O)OC(C)C)Oc2ccccc2)[C@@H](O)[C@@]1(C)F` [Compound 2A], the safety and tolerability entry in the series on HCV is “safe and well-tolerated”.

With `O=c1nc(NO)ccn1[C@@H]1O[C@H](CO)[C@@H](O)[C@H]1O` [N^4-hydroxycytidine, reference compound], the “Selectivity Index (CC50/EC90)” value with SARS-CoV-2 (WA1) (SARS-CoV-2 in HAE, Table 5) is >5.1. For the same molecule, the 90% effect concentration (EC90) in the series with SARS-CoV-2 (WA1) (SARS-CoV-2 in HAE, footnotes f, g, h of Table 5, read-out: EC90, single replicates) was determined as 3.1 µM. Further, in the series on SARS-CoV-2 (WA1) (SARS-CoV-2 in HAE, same experiment), the “potency relative to Compound 1A (times less)” value was found to be 8 times.

With `CC(C)OC(=O)[C@H](C)N[P@](=O)(OC[C@H]1O[C@@](C#N)(n2ncc3c(N)ncnc32)[C@H](F)[C@@H]1O)Oc1ccccc1` [Compound 15], the 90% effect concentration (EC90) with SARS-CoV-2 (WA1) (setting [6]) turned out to be 1.1 µM.

`CNc1nc(N)nc2c1ncn2[C@@H]1O[C@H](CO[P@@](=O)(N[C@@H](C)C(=O)OC(C)C)Oc2ccccc2)[C@@H](O)[C@]1(F)CO` [Compound 9, Isopropyl ((S)-(((2R,3R,4R,5R)-5-(2-amino-6-(methylamino)-9H-purin-9-yl)-4-fluoro-3-hydroxy-4-(hydroxymethyl)tetrahydrofuran-2-yl)methoxy)(phenoxy)phosphoryl)-L-alaninate]: the EC90 in the series on SARS-CoV-2 (WA1) (setting [5]) was 8.5 µM. The “VYR Assay CC50” value in series [1] was “no visual tox”.

The values are drawn from US12551499B2 (Atea Pharmaceuticals, Inc., priority 2020, dated 2026).
